Results: the Deep4Chem optical property database

Test: solvent given as SMILES

`CC1(C)Cc2c(c3ccccc3c3nc4c(nc23)c2c(c3ccccc34)OC(C)(C)C2)O1` gave an absorption maximum (in C1CCCCC1) of 451.06 nm, an absorption maximum (in C1COCCO1) of 453.93 nm and an absorption maximum (in CC#N) of 454.96 nm. The absorption maximum (in CC(C)O) was 452.08 nm, the absorption maximum (in CCCCCC) was 450.05 nm and the absorption maximum (in ClC(Cl)Cl) was 457.04 nm. For the same molecule, the absorption maximum (in c1ccccc1) was 454.96 nm.
For `Cn1c2ccccc2[c+](-c2ccccc2)c2cc([N+](=O)[O-])ccc21`, the absorption maximum (in CC#N) was 428.3 nm, the absorption maximum (in CCO) was 426.3 nm and the absorption maximum (in CO) was 432.1 nm. It also gave an absorption maximum (in CS(C)=O) of 434.3 nm.
For `CCN(CC)c1ccc2cc(-c3ccc(-c4ccc(-c5cc6ccc(N(CC)CC)cc6oc5=O)cc4)cc3)c(=O)oc2c1`, the absorption maximum (in ClCCl) was 417 nm.
`COc1ccc2c(c1)CCc1c(-c3ccccc3)c3n(c1-2)[B-](F)(F)[N+]1=C2C=NC=CN2[B-](F)(F)[N+]1=C3` gave an absorption maximum (in ClCCl) of 546 nm.
`CC[n+]1c(C=C2C(=O)C(C=C3N(C)c4ccc(Cl)cc4C3(C)C)=C2[O-])sc2ccccc21` gave an absorption maximum (in CO) of 634 nm, an absorption maximum (in ClC(Cl)Cl) of 649 nm and an absorption maximum (in ClCCl) of 650 nm.
With `CC(C)(C)c1ccc2c(c1)c1cc(C(C)(C)C)ccc1n2-c1cc[n+]2c(c1)-c1ccccc1O[B-]2(F)F` the absorption maximum (in Cc1ccccc1) was 375 nm.
With `O=[N+]([O-])c1ccc2nc3cc4ccccc4cc3c(-c3ccccc3)c2c1` the absorption maximum (in ClCCl) was 400 nm.
In the case of `CC(=O)c1ccc2ccc3c(NCCC(=O)NCCCCCCc4nc5c(=O)[nH]c(N)nc5n4[C@H]4C[C@H](O)[C@@H](CO)O4)ccc4ccc1c2c43`, the absorption maximum (in C1CCOC1) is reported as 451 nm, the absorption maximum (in CC#N) is reported as 440 nm and the absorption maximum (in CC(C)O) is reported as 452 nm. It also gave an absorption maximum (in CCO) of 451 nm, an absorption maximum (in CN(C)C=O) of 452 nm and an absorption maximum (in CO) of 447 nm. For the same molecule, the absorption maximum (in CS(C)=O) was 456 nm, the absorption maximum (in O) was 460 nm and the absorption maximum (in OCC(O)CO) was 464 nm.
In the case of `COc1cc(C=C(C#Cc2ccccc2)C#Cc2ccccc2)c(OC)cc1C=C(C#Cc1ccccc1)C#Cc1ccccc1`, the absorption maximum (in ClC(Cl)Cl) is reported as 455 nm.
Work on `COc1cc(OC)cc(C2=[O+][B-](F)(F)OC(c3ccc4ccccc4c3)=C2)c1` yielded an absorption maximum (in ClCCl) of 402 nm.
Work on `Cc1ccc(-n2c(-c3ccccc3N)nc3c4ccccc4c4ccccc4c32)cc1` yielded an absorption maximum (in Cc1ccccc1) of 311 nm.
Work on `CC[n+]1ccc2ccccc2c1/C=C/c1c([O-])ccc2ccc(=O)oc12` yielded an absorption maximum (in C1CCOC1) of 629.86 nm, an absorption maximum (in CC#N) of 591.03 nm and an absorption maximum (in CC(C)=O) of 603.44 nm. It also gave an absorption maximum (in CO) of 535.64 nm, an absorption maximum (in CS(C)=O) of 593.42 nm and an absorption maximum (in Cc1ccccc1) of 655.01 nm. The absorption maximum (in ClC(Cl)Cl) was 614.58 nm, the absorption maximum (in ClCCl) was 614.58 nm and the absorption maximum (in O) was 491.71 nm.
`O=C1c2ccccc2C2=Cc3ccc4ccccc4[n+]3[B-](F)(F)N12` showed an absorption maximum (in CCO) of 450 nm, an absorption maximum (in Cc1ccccc1) of 458 nm and an absorption maximum (in ClCCl) of 454 nm.
With `CCCCCCc1ccc(-n2c3[n+](c4c5ccccc5c5ccccc5c42)[B-](C)(C)c2cc(N(c4ccccc4)c4ccccc4)ccc2-3)cc1` the absorption maximum (in C1CCOC1) was 393 nm, the absorption maximum (in CC#N) was 390 nm and the absorption maximum (in Cc1ccccc1) was 397 nm. For the same molecule, the absorption maximum (in ClCCl) was 392 nm.
`Cc1cc(N(C)C)ccc1C1=C2C=CC(=[N+](C)C)C=C2[Si](C)(C)c2cc(N(C)C)ccc21` gave an absorption maximum (in O) of 646 nm.
`O=c1cc(-c2ccccc2)oc(-c2nc3ccccn3c2NC2CCCCC2)c1` showed an absorption maximum (in ClCCl) of 353 nm.
`O=P1(c2ccccc2)C2=C(c3ccccc31)C(c1ccccc1)(c1ccccc1)c1cc(N(c3ccccc3)c3ccccc3)ccc12` (stereo unspecified) showed an absorption maximum (in CC#N) of 427 nm, an absorption maximum (in CO) of 438 nm and an absorption maximum (in Cc1ccccc1) of 431 nm.
